EP4104902B1, “COMPOUNDS AND M[…] SAME” (priority 2020, dated 2021)
Like-named read-outs stand apart in the source and are kept apart here.

Tested on: recombinant rabies virus 1088 strain expressing Gaussia Luciferase (GLuc) (1088/GLuc)
Format: cell-based

CC(C)CC[C@@H]1[C@@H]2[C@@H]3CN[C@@]1(C(=O)NCCc1ccccc1)C[C@@H]3CN2CC1CCCCC1 (relative stereo) [IF-717]
IC50 (read-out: Anti-rabies activity): < 5 µM

NC(=O)CCNC(=O)C12NCC3CC1CN(CC1CCCCC1)C2C3CCc1ccccc1 (stereo not drawn) [IB-710]
IC50 (read-out: Anti-rabies activity): < 5 µM

CC(C)CC[C@@H]1[C@@H]2CN[C@@]3(C(=O)NCCO)[C@@H](C2)CN(CCc2ccccc2)[C@@H]13 (relative stereo) [IB-461]
IC50 (read-out: Anti-rabies activity): 10 to 30 µM

CC(C)CC[C@@H]1[C@@H]2[C@@H]3CN[C@@]1(C(=O)NCc1ccccc1)C[C@@H]3CN2Cc1ccc(F)cc1 (relative stereo) [IF-743]
IC50 (read-out: Anti-rabies activity): 10 to 30 µM

CC(C)CNC(=O)[C@]12NC[C@@H]3C[C@H]1CN(CCC(=O)O)[C@H]2[C@@H]3CO (relative stereo) [IB-431]
IC50 (read-out: Anti-rabies activity): 10 to 30 µM

CC(C)C[C@@H]1[C@@H]2[C@@H]3CN[C@@]1(C(=O)NCCC(N)=O)C[C@@H]3CN2CCc1ccccc1 (relative stereo) [IF-699]
IC50 (read-out: Anti-rabies activity): 10 to 30 µM

N=C(N)NCCCNC(=O)[C@]12NC[C@@H]3C[C@H]1CN(CCc1ccccc1)[C@H]2[C@@H]3Cc1ccccc1 (relative stereo) [IB-344]
IC50 (read-out: Anti-rabies activity): 10 to 30 µM

CC(C)C[C@@H]1[C@@H]2CN[C@@]3(C(=O)NCc4ccccc4)[C@@H](C2)CN(CC(C)C)[C@@H]13 (relative stereo) [IB-5]
IC50 (read-out: Anti-rabies activity): 10 to 30 µM
IC50 (read-out: IC50): 18.2 µM

CC(C)CC1C2CNC3(C(=O)NCc4ccccc4)C(C2)CN(Cc2ccc(C(C)(C)C)cc2)C13 (stereo not drawn) [IB-874]
IC50 (read-out: Anti-rabies activity): 5 to 10 µM

CC(C)C[C@@H]1[C@@H]2CN[C@@]3(C(=O)NCc4cccc5ccccc45)[C@@H](C2)CN(Cc2ccc(O)cc2)[C@@H]13 (relative stereo) [IB-541]
IC50 (read-out: Anti-rabies activity): < 5 µM

COc1ccc(CNC(=O)[C@@]23C[C@@H]4CN(CCC(C)C)[C@@H]([C@@H]4C=N2)[C@H]3Cc2ccccc2)cc1 (relative stereo) [IIF-329]
IC50 (read-out: Anti-rabies activity): < 5 µM

N=C(N)NCCCNC(=O)[C@]12NC[C@@H]3C[C@H]1CN(Cc1cccc4ccccc14)[C@H]2[C@@H]3CCc1ccccc1 (relative stereo) [IB-354]
IC50 (read-out: Anti-rabies activity): < 5 µM

CC(C)C[C@@H]1[C@@H]2[C@@H]3CN[C@@]1(C(=O)NCc1cccc4ccccc14)C[C@@H]3CN2CC(N)=O (relative stereo) [IF-81]
IC50 (read-out: Anti-rabies activity): 10 to 30 µM

CC(C)CCN1C[C@H]2C[C@]3(C(=O)NCc4cccc(Cl)c4)N=C[C@H]2[C@H]1[C@H]3Cc1ccccc1 (relative stereo) [IIF-325]
IC50 (read-out: Anti-rabies activity): < 5 µM

CC(C)CNC(=O)[C@]12NC[C@@H]3C[C@H]1CN(CC(C)C)[C@H]2[C@@H]3Cc1ccccc1 (relative stereo) [IB-3]
IC50 (read-out: Anti-rabies activity): 10 to 30 µM
IC50 (read-out: IC50): 19.6 µM

Cc1ccc(C[C@@H]2[C@@H]3[C@@H]4CN[C@@]2(C(=O)NCc2ccccc2)C[C@@H]4CN3CC(C)C)cc1 (relative stereo) [IF-14]
IC50 (read-out: Anti-rabies activity): 10 to 30 µM
IC50 (read-out: IC50): 14.1 µM

CC(C)CCNC(=O)C12NCC3CC1CN(CCO)C2C3Cc1cccc2ccccc12 (stereo not drawn) [IB-727]
IC50 (read-out: Anti-rabies activity): < 5 µM

CC(C)CC1C2C3C=NC1(C(=O)NCc1ccccc1)CC3CN2Cc1cccc(Cl)c1 (stereo not drawn) [IIF-84]
IC50 (read-out: Anti-rabies activity): 5 to 10 µM

CC(C)CCN1C[C@H]2C[C@]3(C(=O)NCCc4ccccc4)NC[C@H]2[C@H]1[C@H]3Cc1ccc(O)cc1 (relative stereo) [IF-545]
IC50 (read-out: Anti-rabies activity): 10 to 30 µM

O=C(NCc1ccc(F)cc1)[C@@]12C[C@@H]3CN(CCO)[C@@H]([C@@H]3CN1)[C@H]2Cc1ccccc1 (relative stereo) [IF-508]
IC50 (read-out: Anti-rabies activity): 10 to 30 µM

CC(C)CCNC(=O)[C@@]12C[C@@H]3CN(Cc4ccc(O)cc4)[C@@H]([C@@H]3CN1)[C@H]2Cc1cccc2ccccc12 (relative stereo) [IF-684]
IC50 (read-out: Anti-rabies activity): 10 to 30 µM

COc1ccc(CNC(=O)[C@@]23C[C@@H]4CN(CC(C)C)[C@@H]([C@@H]4C=N2)[C@H]3CCc2ccccc2)cc1 (relative stereo) [IIF-332]
IC50 (read-out: Anti-rabies activity): < 5 µM

N=C(N)NCCCNC(=O)[C@@]12C[C@@H]3CN(Cc4cccc5ccccc45)[C@@H]([C@@H]3CN1)[C@H]2Cc1cccc2ccccc12 (relative stereo) [IF-390]
IC50 (read-out: Anti-rabies activity): 10 to 30 µM

CC(C)CCN1C[C@@H]2C[C@H]3CN[C@]2(C(=O)NCCC(=O)O)[C@@H]1[C@@H]3CC(C)C (relative stereo) [IB-611]
IC50 (read-out: Anti-rabies activity): 10 to 30 µM

O=C(O)CCNC(=O)[C@]12NC[C@@H]3C[C@H]1CN(Cc1ccccc1)[C@H]2[C@@H]3Cc1cccc2ccccc12 (relative stereo) [IB-616]
IC50 (read-out: Anti-rabies activity): 10 to 30 µM

CC(C)CNC(=O)[C@@]12C[C@@H]3CN(Cc4ccccc4)[C@@H]([C@@H]3CN1)[C@H]2CCc1ccccc1 (relative stereo) [IF-670]
IC50 (read-out: Anti-rabies activity): < 5 µM

NC(=O)CN1C[C@H]2C[C@]3(C(=O)NCc4cccc5ccccc45)NC[C@H]2[C@H]1[C@H]3CCc1ccccc1 (relative stereo) [IF-85]
IC50 (read-out: Anti-rabies activity): 10 to 30 µM

CC(C)NC(=O)[C@@]12C[C@@H]3CN(Cc4cccc5ccccc45)[C@@H]([C@@H]3CN1)[C@H]2CCc1ccccc1 (relative stereo) [IF-789]
IC50 (read-out: Anti-rabies activity): 10 to 30 µM

NC(=O)CCNC(=O)[C@]12NC[C@@H]3C[C@H]1CN(Cc1ccccc1)[C@H]2[C@@H]3CCc1ccccc1 (relative stereo) [IB-535]
IC50 (read-out: Anti-rabies activity): 10 to 30 µM

CC(C)CC1C2CNC3(C(=O)NCCC(N)=O)C(C2)CN(Cc2cccc4ccccc24)C13 (stereo not drawn) [IB-520]
IC50 (read-out: Anti-rabies activity): < 5 µM

CC(C)CNC(=O)C12NCC3CC1CN(CCc1ccccc1)C2C3CCC(=O)O (stereo not drawn) [IB-508]
IC50 (read-out: Anti-rabies activity): 10 to 30 µM

CC(C)CC1C2CNC3(C(=O)NCc4ccc(F)cc4)C(C2)CN(Cc2ccc(O)cc2)C13 (stereo not drawn) [IB-499]
IC50 (read-out: Anti-rabies activity): < 5 µM

CC(C)CN1C[C@@H]2C[C@H]3CN[C@]2(C(=O)NCc2ccccc2)[C@@H]1[C@@H]3Cc1ccc(O)cc1 (relative stereo) [IB-783]
IC50 (read-out: Anti-rabies activity): 10 to 30 µM

CC(C)CC1C2CNC3(C(=O)NCc4ccc5ccccc5c4)C(C2)CN(Cc2ccccc2)C13 (stereo not drawn) [IB-879]
IC50 (read-out: Anti-rabies activity): < 5 µM

CCCCCCNC(=O)[C@@]12C[C@@H]3CN(CCc4ccccc4)[C@@H]([C@@H]3CN1)[C@H]2Cc1ccccc1 (relative stereo) [IF-602]
IC50 (read-out: Anti-rabies activity): 10 to 30 µM

CC(C)C[C@@H]1[C@@H]2CN[C@@]3(C(=O)NCCCNC(=N)N)[C@@H](C2)CN(Cc2cccc4ccccc24)[C@@H]13 (relative stereo) [IB-350]
IC50 (read-out: Anti-rabies activity): 10 to 30 µM

CCCCCCNC(=O)[C@]12NC[C@@H]3C[C@H]1CN(Cc1ccc(F)cc1)[C@H]2[C@@H]3Cc1ccc(O)cc1 (relative stereo) [IB-656]
IC50 (read-out: Anti-rabies activity): < 5 µM

O=C(NCc1ccc(F)cc1)C12NCC3CC1CN(CCO)C2C3Cc1ccccc1 (stereo not drawn) [IB-479]
IC50 (read-out: Anti-rabies activity): 10 to 30 µM

CC(C)CCN1CC2CC3CNC2(C(=O)NCc2ccccc2)C1C3CCC(=O)O (stereo not drawn) [IB-505]
IC50 (read-out: Anti-rabies activity): 10 to 30 µM

CC(C)CN1C[C@H]2C[C@]3(C(=O)NCc4ccccc4)NC[C@H]2[C@H]1[C@H]3CC1CCCCC1 (relative stereo) [IF-38]
IC50 (read-out: Anti-rabies activity): 10 to 30 µM

CC(C)CC[C@@H]1[C@@H]2[C@@H]3CN[C@@]1(C(=O)NCCO)C[C@@H]3CN2Cc1cccc2ccccc12 (relative stereo) [IF-613]
IC50 (read-out: Anti-rabies activity): 10 to 30 µM

CC(C)CCN1C[C@@H]2C[C@H]3CN[C@]2(C(=O)NCCO)[C@@H]1[C@@H]3Cc1cccc2ccccc12 (relative stereo) [IB-659]
IC50 (read-out: Anti-rabies activity): < 5 µM

NC(=O)CN1C[C@@H]2C[C@H]3CN[C@]2(C(=O)NCc2ccc(F)cc2)[C@@H]1[C@@H]3Cc1cccc2ccccc12 (relative stereo) [IB-96]
IC50 (read-out: Anti-rabies activity): 10 to 30 µM

O=C(O)CCNC(=O)[C@]12NC[C@@H]3C[C@H]1CN(CC1CCCCC1)[C@H]2[C@@H]3Cc1cccc2ccccc12 (relative stereo) [IB-614]
IC50 (read-out: Anti-rabies activity): 10 to 30 µM

CC(C)CCNC(=O)[C@@]12C[C@@H]3CN(Cc4ccc(F)cc4)[C@@H]([C@@H]3CN1)[C@H]2CC(C)C (relative stereo) [IF-585]
IC50 (read-out: Anti-rabies activity): < 5 µM

CC(C)CCNC(=O)[C@@]12C[C@@H]3CN(Cc4ccccc4)[C@@H]([C@@H]3CN1)[C@H]2CC(C)C (relative stereo) [IF-691]
IC50 (read-out: Anti-rabies activity): 10 to 30 µM

Cc1ccc(CN2CC3CC4CNC3(C(=O)NCc3ccccc3)C2C4CC(C)C)cc1 (stereo not drawn) [IB-867]
IC50 (read-out: Anti-rabies activity): 5 to 10 µM

CC(C)CC1C2C3C=NC1(C(=O)NCc1ccccc1)CC3CN2Cc1ccc(OC(F)(F)F)cc1 (stereo not drawn) [IIF-96]
IC50 (read-out: Anti-rabies activity): 5 to 10 µM

CC(C)CC[C@@H]1[C@@H]2[C@@H]3CN[C@@]1(C(=O)NCc1ccc(O)cc1)C[C@@H]3CN2CC1CCCCC1 (relative stereo) [IF-474]
IC50 (read-out: Anti-rabies activity): < 5 µM

O=C(NCCc1ccccc1)[C@@]12C[C@@H]3CN(Cc4ccccc4)[C@@H]([C@@H]3CN1)[C@H]2Cc1ccc(O)cc1 (relative stereo) [IF-722]
IC50 (read-out: Anti-rabies activity): < 5 µM

CCN1CC2CC3CN(Cc4ccc(C)cc4)C(C2CC(C)C)C31C(=O)NCc1ccccc1 (stereo not drawn) [IB-880]
IC50 (read-out: Anti-rabies activity): < 5 µM

CC(C)CC[C@@H]1[C@@H]2CN[C@@]3(C(=O)NCc4ccccc4)[C@@H](C2)CN(Cc2ccc(O)cc2)[C@@H]13 (relative stereo) [IB-786]
IC50 (read-out: Anti-rabies activity): 10 to 30 µM

CC(C)CCNC(=O)[C@]12NC[C@@H]3C[C@H]1CN(CC(C)C)[C@H]2[C@@H]3CCCNC(=N)N (relative stereo) [IB-192]
IC50 (read-out: Anti-rabies activity): < 5 µM

Cc1ccc(CN2CC3CC4CN(C(=O)CC(C)C)C3(C(=O)NCc3ccccc3)C2C4CC(C)C)cc1 (stereo not drawn) [IB-883]
IC50 (read-out: Anti-rabies activity): < 5 µM

CC(C)CC[C@@H]1[C@@H]2[C@@H]3CN[C@@]1(C(=O)NCc1ccc(O)cc1)C[C@@H]3CN2Cc1ccc(F)cc1 (relative stereo) [IF-479]
IC50 (read-out: Anti-rabies activity): < 5 µM

CC(C)CC1C2CNC3(C(=O)NCc4ccccc4)C(C2)CN(Cc2ccc(Cl)cc2)C13 (stereo not drawn) [IB-864]
IC50 (read-out: Anti-rabies activity): 5 to 10 µM

N=C(N)NCCC[C@@H]1[C@@H]2CN[C@@]3(C(=O)NCc4ccc(F)cc4)[C@@H](C2)CN(Cc2ccccc2)[C@@H]13 (relative stereo) [IB-250]
IC50 (read-out: Anti-rabies activity): 10 to 30 µM

NC(=O)CCNC(=O)C12CC3CN(CCc4ccccc4)C(C3CN1)C2CC(N)=O (stereo not drawn) [IF-219]
IC50 (read-out: Anti-rabies activity): 10 to 30 µM

CC(C)CCN1C[C@H]2C[C@]3(C(=O)NCC(C)C)NC[C@H]2[C@H]1[C@H]3CCc1ccccc1 (relative stereo) [IF-635]
IC50 (read-out: Anti-rabies activity): 10 to 30 µM

Cc1ccc(CN2CC3CC4CN(C(=O)OCC(C)C)C3(C(=O)NCc3ccccc3)C2C4CC(C)C)cc1 (stereo not drawn) [IB-886]
IC50 (read-out: Anti-rabies activity): 5 to 10 µM

CC(C)CNC(=O)[C@]12N=C[C@@H]3C[C@H]1CN(Cc1ccccc1)[C@H]2[C@@H]3CC(C)C (relative stereo) [IIB-4, (3S*,3aS*,6R*,7R*,7aS*)-1-benzyl-N,7-diisobutyl-1,2,3,6,7,7a-hexahydro-3aH-3,6-methanopyrrolo[3,2-b]pyridine-3a-carboxamide]
IC50 (read-out: Anti-rabies activity): 5 to 10 µM
IC50 (read-out: IC50): 8.9 µM

CC(C)CNC(=O)C12CC3CN(CCC(=O)O)C(C3CN1)C2Cc1ccc(O)cc1 (stereo not drawn) [IF-455]
IC50 (read-out: Anti-rabies activity): 10 to 30 µM
